Laboratory results from patent US20240358837A1, “Amorphous Photosensitizing Particles, Methods For The Preparation Thereof, And Methods For The Use Thereof” (priority 2021, published 2024).

Experiments:
blood-brain barrier = experiment: Photodynamic opening of the blood-brain barrier (Evans blue) in rats; type: in vivo, rat; details: low-dose PDT, 80 J/cm^2, 85 mW/cm^2
Procedure: Sprague-Dawley rats (4-5 weeks old, Envigo) received an intravenous injection of NanoVP (0.25 or 0.5 mg/kg) or 5-aminolevulinic acid (5-ALA, 20 or 125 mg/kg) at 30 min or 4 hours before PDT. PDT parameters, including photosensitizer concentration, drug-light interval, irradiance, and radiant exposure, were selected. At 30 minutes post-photosensitizer injection, rats were anesthetized with isoflurane and secured within a stereotaxic frame.
During the 30-minute drug-light interval, a craniotomy was performed. The top of the rat head was shaved, and the skin was removed. The periosteum was retracted to the edges of the skull. Using a micro drill (OmniDrill35, WPI), a circle about 4 mm in diameter was sketched into the right parietal bone. Drilling was stopped periodically, and PBS was applied to prevent heating. […]
PDT was performed by light activation of the exposed brain (NanoVP: 690 nm, 80 or 100 J/cm^2; 5-ALA: 635 nm, 60 or 80 J/cm^2; 40 or 85 mW/cm^2; ML6600, Modulight). At 90 minutes post-PDT, rats received an intravenous injection of Evans blue dye (2%, 4 mL/kg) to determine the blood-brain barrier integrity using imaging and extraction methods In particular, Evans blue was quantified. […] Samples were centrifuged to pellet the tissue, and the optical density of Evans blue within the supernatant at 610 nm was measured on a multi-mode microplate reader. […]

[1] = non-tumor-bearing animals, 125 mg/kg 5-ALA and 54 J, within 5 days of treatment; cited from earlier work
U87 cells = experiment: PDT cell viability (MTT assay) in U87 cells; type: cell-based, human; details: MTT 24 hours after PDT, 0-5 J/cm^2, 10 mW/cm^2
Procedure: Cells were cultured overnight in a 35-mm Petri dish or 96-well black wall plates (1-3.3×10^4 cells/cm^2) and then incubated with photosensitizers (i.e., NanoVP, free-form VP, or Liposomal VP; 0.25 μM) for 24 hours. Subsequently, cells were washed twice with PBS and incubated with a photosensitizer free complete medium. Photosensitizer uptake in cells was determined using extraction methods followed by VP fluorescence measurements (Excitation/Emission: 435/700±10 nm, Synergy Neo2, BioTek) or visualized using fluorescence imaging (Lionheart, BioTek) as described previously. PDT was performed by exposing the cells to 690 nm light (0-10 J/cm^2, […], bottom illumination; ML6600, Modulight).
(§1) At 24 hours after PDT, cell viability was determined using MTT [3-(4,5-dimethylthiazol-2-yl)-2,5-diphenyltetrazolium bromide] assay or neutral red assay (Abcam) following the vendor's protocol. For dark toxicity evaluation, cells were incubated with media containing photosensitizers (0-40 μM) for 72 hours, followed by the MTT assay. The photosensitizer efflux by ATP binding cassette (ABC) transporters was studied in MCF-7 and its multi-drug resistant sublines (MCF-7 TX400 and MCF-7 MX100) by adapting the protocols described herein.

caspase 3 in U87 cells = experiment: Total and cleaved caspase 3 immunoblotting after PDT; type: cell-based, human; details: one-hour post light activation
Procedure: Expressions of total and cleaved caspase 3 were examined by immunoblotting techniques. U87 cells were plated in a 35-mm Petri dish (Falcon) at a density of 2.2×10^4 cells/cm^2. Cells were incubated with 0.25 μM of NanoVP, free-form VP, or Liposomal VP for 24 hours. Cells were washed twice with PBS and irradiated with 690-nm light (10 J/cm^2, 50 mW/cm^2) in a fresh culture medium. At 1 hour after PDT, cell lysates were collected in radioimmunoprecipitation assay (RIPA) buffer supplemented with a 1% protease inhibitor. Protein lysates (22 μg) were separated on a 4-12% precast Bis-Tris gel (NuPAGE) and transferred onto a nitrocellulose membrane. After blocking with Odyssey blocking buffer (Li-COR) for 1 hour, blots were incubated with primary antibody against beta-actin (#3700, cell signaling), caspase 3 (#9662, Cell Signaling,), or cleaved caspase 3 (#9661, Cell Signaling) overnight at 4° C. Blots were washed with 1X Tris-buffered Saline, 0.1% Tween® 20 Detergent (TBST) buffer followed by incubation with IRDye 680RD goat anti-mouse secondary antibody (926-68070, Li-COR) or IRDye 800CW goat anti-rabbit secondary antibody (926-32211, Li-COR) for 1 hour at room temperature based on the supplier's advice. Visualization of protein bands was developed using the LiCor ODYSSEY CLx (Li-COR). β-actin serviced as a loading control. Band intensity was determined using LiCOR ODYSSEY CLx software. PDT-treated samples were normalized to a no-treatment control.

U87 cancer cells = experiment: Lysosomal damage (neutral red uptake assay) after PDT; type: cell-based, human; details: 690 nm, 1 J/cm^2, 50 mW/cm^2; 0.25 μM
Procedure: as §1

[2] = Fluorescence self-quenching (fluorescence in DMSO divided by fluorescence in PBS); type: physicochemical; details: 0.625-5 μM
Procedure: The stability of NanoVP particles in PBS at 4° C. was determined by monitoring their hydrodynamic size and polydispersity index using a particle sizer analyzer for up to one year. NanoVP singlet oxygen (^1O2) generation, self-quenching, and drug release were studied in 96-well plates as described previously. NanoVP and singlet oxygen sensor green (SOSG) at 5 μM were mixed and irradiated with 690 nm light (10 J/cm^2, 10 mW/cm^2; ML6600, Modulight). A multi-mode microplate reader (Synergy Neo2, BioTek) acquired fluorescence signals of VP (Excitation/Emission: 435/650-750 nm) or SOSG (Excitation/Emission: 504/525 nm) before and after light irradiation. Self-quenching (FDSMO/FO) is defined as the fluorescence after disruption of the NanoVP using DMSO (FDSMO) divided by the fluorescence of the NanoVP in PBS (FO). Photosensitizer release from NanoVP (de-quenching) was studied by monitoring the gain in VP fluorescence signal in PBS/DMSO buffer (0-100% v/v) at room temperature or in Eagle's Minimum Essential Medium (EMEM, Cellgro) with 0-10% v/v fetal bovine serum (FBS, Gibco) at 37° C.
Fluorescence photoactivity was defined as the maximal fluorescence intensity (FL) of NC-VP and L-VP in PBS divided by the maximal fluorescence intensity (FL) of NC-VP and L-VP in DMSO. The absorbance spectrums of the constructs over the visible spectrum were determined in PBS and DMSO. […]

Molecule	depth at which extravasated Evan Blue is visible in rat brain (blood-brain barrier)	mortality [1] [%]	half maximal inhibition concentration (IC50) of PDT (U87 cells) [μM×J/cm^2]	cleaved-to-total caspase-3 ratio (caspase 3 in U87 cells)	reduction of total (pro) caspase-3 expression (caspase 3 in U87 cells) [%]	increase in cleaved caspase-3 formation (caspase 3 in U87 cells; 10 J/cm^2, 50 mW/cm^2) [fold]	lysosomal integrity (U87 cancer cells)	fluorescence self-quenching [2]
NCC(=O)CCC(=O)O [5-ALA, 5-aminolevulinic acid]	up to 1 mm	50	–	–	–	–	–	–
verteporfin [free-form VP]	–	–	0.20	~4.4	~50	~2.4	does not affect lysosomal integrity	up to 78 fold
